# Experiments:
# [1] = tested on: 5-HT1A receptors; conditions: background statement; cited from earlier work
# [2] = target: β-adrenergic receptors; assay: Radioligand binding, β-adrenergic receptors labeled by ^3 H-dihydroalprenolol (^3 H-DHA), rat cortex; conditions: for IC50: mean ± standard error of 3-4 experiments, read-out: Drug Potency (IC50) β-adrenergic (^3 H-DHA); for potency at β-adrenergic receptors relative to 5-HT1A (in words): labeled by ^3 H-DHA
# Method: (§1) Radioligand binding studies were performed described in Peroutka et al., Molecular Pharmacology (1979) 16:687-699. Briefly, rat brain were purchased from Pel-Freez (Roger, AR). On the day of study, the samples were thawed in Tris-HCl buffer. Tissues were homogenized in 20 volumes Tris-HCl buffer (pH 7.7 at 25° C.) using a Brinkmann Polytron and then centrifuged in an IEC B20A centrifuge at 49,000×g for 10 min. The supernatant was discarded, and the pellet was resuspended in the same volume of Tris-HCl buffer and incubated at 37° C. for 10 min prior to a second centrifugation at 49,000×g for 10 min. The final pellet was resuspended in 80 volumes of Tris-HCl buffer containing 10 μM pargyline, 4 mM calcium chloride and 0.1% ascorbic acid. The suspensions were immediately used in the binding assay. […] Following incubation at 25° C. for 30 minutes, the assays were rapidly filtered under vacuum through #32 glass filters (Schleicher and Scheull: Keene, NH) with two 5 ml washes using 50 mM Tris-HCl buffer. Radioactivity was measured by liquid scintillation spectroscopy in ml of 3a70 Counting Cocktail (Research Products International: Mt. Prospect, IL) at 54% efficiency. […] All drugs were diluted and dissolved in assay buffer.
# (§2) Each experiment was performed in triplicate and repeated 3 to 6 times.
# [3] = tested on: non-5-HT1A; assay: Radioligand binding, non-5-HT1A sites labeled by ^3 H-5-HT + 100 nM 8-OH-DPAT, rat cortex; conditions: for potency at non-5-HT1A binding sites (in words) / IC50: rat cortex; for IC50: read-out: Drug Potency (IC50) non-5-HT1A (^3 H-5-HT + 100 nM 8-OH-DPAT), mean ± standard error of 3-4 experiments
# Method: as §1, with “Briefly,” for “Radioligand binding studies were performed described in Peroutka et al., Molecular Pharmacology (1979) 16:687-699. Briefly,”, “buffer.” for “buffer. Radioactivity was measured by liquid scintillation spectroscopy in ml of 3a70 Counting Cocktail (Research Products International: Mt. Prospect, IL) at 54% efficiency.”
# as §2
# [4] = Stability of Compounds 8-11 on storage; format: physicochemical; conditions: methanol; 10 mg/ml, 20° C., 'too months'; read-out: decomposition in methanolic solution
# Method: Methanolic solutions (10 mg/ml) are suitable storage forms.
# [5] = target: T1, 5-HT2 (Rattus norvegicus, UniProt P14842); assay: Radioligand binding, 5-HT2 sites labeled by ^3 H-spiperone, rat cortex; conditions: for IC50: mean ± standard error of 3-4 experiments
# T1 construct: rat brain were purchased from Pel-Freez; tissue Pel-Freez (Roger, AR); host or cells: rat brain (cortex) membranes
# T1 sequence (P14842 whole entry): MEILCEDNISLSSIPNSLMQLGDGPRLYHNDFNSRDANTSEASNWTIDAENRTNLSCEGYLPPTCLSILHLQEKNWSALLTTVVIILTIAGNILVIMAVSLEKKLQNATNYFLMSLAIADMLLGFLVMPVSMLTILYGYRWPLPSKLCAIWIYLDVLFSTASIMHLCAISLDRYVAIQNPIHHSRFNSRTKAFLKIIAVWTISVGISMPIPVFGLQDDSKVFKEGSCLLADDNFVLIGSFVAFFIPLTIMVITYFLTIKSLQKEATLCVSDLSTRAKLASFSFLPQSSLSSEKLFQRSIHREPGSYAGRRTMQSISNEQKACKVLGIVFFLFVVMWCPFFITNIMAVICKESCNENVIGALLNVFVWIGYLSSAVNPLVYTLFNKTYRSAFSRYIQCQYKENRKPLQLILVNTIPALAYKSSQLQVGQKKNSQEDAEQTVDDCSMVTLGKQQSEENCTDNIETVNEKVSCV
# Method: as §1, §2
# [6] = target: T2, 5-HT1A (Rattus norvegicus, UniProt P19327); assay: Radioligand binding, 5-HT1A sites labeled by ^3 H-8-OH-DPAT, rat cortex; conditions: for IC50: mean ± standard error of 3-4 experiments
# T2 construct: rat brain were purchased from Pel-Freez; tissue Pel-Freez (Roger, AR); host or cells: rat brain (cortex) membranes
# T2 sequence (P19327 1-422): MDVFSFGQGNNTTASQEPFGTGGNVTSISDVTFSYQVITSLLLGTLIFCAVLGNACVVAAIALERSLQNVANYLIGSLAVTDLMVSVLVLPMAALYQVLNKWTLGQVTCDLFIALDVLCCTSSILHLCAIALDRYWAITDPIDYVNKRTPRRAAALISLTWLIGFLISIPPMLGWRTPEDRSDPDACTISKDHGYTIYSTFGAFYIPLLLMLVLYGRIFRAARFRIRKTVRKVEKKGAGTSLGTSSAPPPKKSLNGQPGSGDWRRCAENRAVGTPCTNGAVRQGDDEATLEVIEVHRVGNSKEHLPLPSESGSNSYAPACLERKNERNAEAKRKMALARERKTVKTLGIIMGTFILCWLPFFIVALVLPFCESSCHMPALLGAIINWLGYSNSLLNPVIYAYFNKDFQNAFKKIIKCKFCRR
# Method: as §1, §2
Compound,IC50 [2],potency at non-5-HT1A binding sites (in words) [3],IC50 [3],degraded at 1460 h [4],potency at 5-HT2 binding sites (in words) [5],IC50 [5],potency at the 5-HT1A binding site (in words) [6],IC50 [6],inhibition of [^3 H]-8-OH-DPAT binding to 5-HT1A receptors (in words) [1],potency at β-adrenergic receptors relative to 5-HT1A (in words) [2],selectivity for β-adrenergic receptors (in words) [2],Kd ([3]; used for Ki calculation)
CC(C)NC[C@H](O)COc1cccc2ccccc12 [(-)-propranolol],,,,,,,,,potent inhibitors,,,
O=C1CC2(CCCC2)CC(=O)N1CCCCN1CCN(c2ncccn2)CC1 [Buspirone],,,,,,,,,potent inhibitors,,,
O=C1c2ccccc2S(=O)(=O)N1CCCCN1CCN(c2ncccn2)CC1 [TVX Q 7821],,,,,,,,,potent inhibitors,,,
"NCCc1c[nH]c2ccc(O)cc12 [^3 H-5-HT, 5-Hydroxytryptamine]",,,,,,,,,,,,3.2 nM
CN1CCC(=C2c3ccccc3C=Cc3ccccc32)CC1 [cyproheptadine],,,,,,,,,potent inhibitors,,,
CN1CCC(=C2c3ccccc3CCc3sccc32)CC1 [pizotifen],,,,,,,,,potent inhibitors,,,

# The next lines start with results.
IC50 [2],potency at non-5-HT1A binding sites (in words) [3],IC50 [3],degraded at 1460 h [4],potency at 5-HT2 binding sites (in words) [5],IC50 [5],potency at the 5-HT1A binding site (in words) [6],IC50 [6],Compound,inhibition of [^3 H]-8-OH-DPAT binding to 5-HT1A receptors (in words) [1],potency at β-adrenergic receptors relative to 5-HT1A (in words) [2],selectivity for β-adrenergic receptors (in words) [2],Kd ([3]; used for Ki calculation)
1.3 ± 0.2 nM,least potent,140 ± 70 nM,< 5%,least potent,3100 ± 1000 nM,"similar, though less potent, affinity",6.3 ± 2 nM,"CC(C)(NC(=O)CBr)[C@H]1CC[C@@](C)(NCC(O)COc2cccc3[nH]ccc23)CC1 (some centres unmarked) [Compound 8, N^8-(Bromoacetyl)-N^1-[3-(4-indolyloxy)-2-hydroxypropyl]-(Z)-1,8-diamino-p-menthane]",,,,
5.6 ± 0.5 nM,approximately less potent,430 ± 200 nM,< 5%,approximately less potent,4000 ± 500 nM,extremely potent,0.71 ± 0.02 nM,"CC(C)(NCC(O)COc1cccc2[nH]ccc12)[C@H]1CC[C@@](C)(NC(=O)CBr)CC1 (some centres unmarked) [Compound 9, N^1 (Bromoacetyl)-N^8-[3-(4-indolyloxy)-2-hydroxypropyl]-(Z)-1,8-diamino-p-menthane]",,approximately an order of magnitude less potent,,
,,,< 5%,,,,,"CC(C)(NC(=O)CBr)[C@H]1CC[C@@](C)(NCC(O)COc2cccc3[nH]c(C#N)cc23)CC1 (some centres unmarked) [Compound 10, N^8-(Bromoacetyl)-N1-[3-[(2-cyano-4-indolyl)oxy]-2-hydroxYpropyl]-(Z)-1,8-diamino-p-menthane]",,,,
1.1 ± 0.02 nM,least potent,410 ± 200 nM,< 5%,least potent,4400 ± 2000 nM,"similar, though less potent, affinity",5.3 ± 2 nM,CC(C)(NCC(O)COc1cccc2[nH]c(C#N)cc12)[C@H]1CC[C@@](C)(NC(=O)CBr)CC1 (some centres unmarked) [Compound 11],,,,
2.8 ± 0.5 nM,least potent,270 ± 50 nM,,least potent,1100 ± 500 nM,"similar, though less potent, affinity",31 ± 8 nM,COC(=O)/C=C/C(=O)NC(C)(C)[C@H]1CC[C@@](C)(NCC(O)COc2cccc3[nH]ccc23)CC1 (some centres unmarked) [Compound 12],,,most selective for β-adrenergic receptors,
10 ± 5 nM,approximately less potent,2900 ± 800 nM,,approximately less potent,3600 ± 1000 nM,extremely potent,1.2 ± 0.2 nM,COC(=O)/C=C/C(=O)N[C@]1(C)CC[C@H](C(C)(C)NCC(O)COc2cccc3[nH]ccc23)CC1 (some centres unmarked) [Compound 13],,approximately an order of magnitude less potent,,
4.2 ± 2 nM,least potent,46 ± 10 nM,,least potent,,"similar, though less potent, affinity",26 ± 8 nM,CC(C)(NC(=O)C1=CC2C=CC1CC2)[C@H]1CC[C@@](C)(NCC(O)COc2cccc3[nH]ccc23)CC1 (some centres unmarked) [Compound 14],,,most selective for β-adrenergic receptors,
19 ± 9 nM,approximately less potent,1300 ± 500 nM,,approximately less potent,,extremely potent,1.1 ± 0.1 nM,CC(C)(NCC(O)COc1cccc2[nH]ccc12)[C@H]1CC[C@@](C)(NC(=O)C2=CC3C=CC2CC3)CC1 (some centres unmarked) [Compound 15],,approximately an order of magnitude less potent,,

# From patent US5229412A, “Method for relieving anxiety using 5-hydroxytryptamine-1A-receptor-binding compounds” (The Board of Trustees of the Leland Stanford Junior …, priority 1988, dated 1993)
